In ChEMBL document CHEMBL3286280, “Importance of sphingosine kinase (SphK) as a target in developing cancer therapeutics and recent developments in the synthesis of novel SphK inhibitors” (J Med Chem, 2014) one finds Selectivity ratio, Ki and IC50 data, which are given here for six compounds.

Test [1] is filed under the species Homo sapiens. Kind of test: Selectivity ratio for SphK1 (unknown origin) over SphK2 (unknown origin).
For test [2], the target named is T1, Sphingosine kinase 2 (Homo sapiens, UniProt Q9NRA0).
T1 sequence (Q9NRA0 whole entry): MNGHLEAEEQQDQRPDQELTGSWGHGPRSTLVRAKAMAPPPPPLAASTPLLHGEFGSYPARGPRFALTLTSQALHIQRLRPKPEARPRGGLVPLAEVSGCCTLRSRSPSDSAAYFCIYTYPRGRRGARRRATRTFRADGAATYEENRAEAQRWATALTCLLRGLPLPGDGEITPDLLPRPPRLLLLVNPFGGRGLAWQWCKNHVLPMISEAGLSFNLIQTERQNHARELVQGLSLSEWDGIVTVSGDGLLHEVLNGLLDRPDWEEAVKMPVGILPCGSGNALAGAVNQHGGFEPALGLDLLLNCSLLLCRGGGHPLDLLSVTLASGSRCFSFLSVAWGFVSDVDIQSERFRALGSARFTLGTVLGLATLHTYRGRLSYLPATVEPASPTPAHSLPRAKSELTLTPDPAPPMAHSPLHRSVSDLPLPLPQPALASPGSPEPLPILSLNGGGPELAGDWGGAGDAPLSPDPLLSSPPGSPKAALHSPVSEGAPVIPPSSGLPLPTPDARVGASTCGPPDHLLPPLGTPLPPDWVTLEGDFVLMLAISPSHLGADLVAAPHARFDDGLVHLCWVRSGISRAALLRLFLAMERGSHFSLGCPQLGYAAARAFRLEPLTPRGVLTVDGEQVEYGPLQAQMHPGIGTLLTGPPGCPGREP
Kind of test: Inhibition of SphK2 (unknown origin).

Test [3] has as its target T1, Sphingosine kinase 2. Put plainly: Competitive inhibition of V5-His-tagged human SphK2 expressed in HEK293 cells assessed as S1P production using sphingosine and [gamma-32P]ATP as substrate by thin layer chromatography. Type of test: cell-based.
The target in test [4] is T1, Sphingosine kinase 2. Put plainly: Inhibition of SphK2 (unknown origin) using sphingosine and [gamma-32P]ATP as substrate.

On to `CCCCCCCCc1ccc(CCN2CCCC(O)C2)cc1` (stereo unspecified), for which, in test [1], the Selectivity ratio was determined as 6.1.

In test [2], `CCCCCCCCCCCCC/C=C/[C@@H](O)[C@H](CO)N(C)C` [DIMETHYLSPINGOSINE] registered a Ki of 12 µM.

On to `CCCCCc1ccc(/C=C/[C@H](O)[C@@H](CO)NC)cc1`, for which, in test [3], the IC50 stood at 10 µM.

As to `CCCCCCCCc1ccc(CC[C@@](N)(CO)COC)cc1`, the Ki in test [2] turned out to be 27 µM.

`CCCCOc1ccc(CC/C=C2\SC(=O)N(CCN)C2=O)cc1`: affinity in test [4] was put at a Ki of 4.3 µM.

In the case of `CCCCCCCCc1ccc(CCN2CCC(O)CC2)cc1`, the Selectivity ratio in test [1] was 15.

In general, Ki refers to the dissociation constant of the complex between target and ligand, obtained from inhibition or displacement. High values mean weaker binding, low ones tighter binding. In general, IC50 refers to the concentration needed to halve the response being measured.
